According to US20230278995A1, “1,3,4-OXADIAZOLE DERIVATIVE COMPOUNDS AS HISTONE DEACETYLASE 6 INHIBITOR, AND THE PHARMACEUTICAL COMPOSITION COMPRISING THE SAME” (CHONG KUN DANG PHARMACEUTICAL CORP., priority 2020, published 2023):

Key:
human recombinant HDAC6 = molecular target: T1, human recombinant HDAC6 (Homo sapiens, UniProt Q9UBN7); assay: HDAC enzyme activity inhibition assay (HDAC Fluorimetric Drug Discovery Kit), HDAC6; assay type: biochemical; settings: for HDAC6 selectivity (fold): HDAC1 vs HDAC6; for IC50: human recombinant HDAC6, same protocol as HDAC1
T1 construct: purchased Calbiochem Inc. 382180
T1 sequence (Q9UBN7 1-1215): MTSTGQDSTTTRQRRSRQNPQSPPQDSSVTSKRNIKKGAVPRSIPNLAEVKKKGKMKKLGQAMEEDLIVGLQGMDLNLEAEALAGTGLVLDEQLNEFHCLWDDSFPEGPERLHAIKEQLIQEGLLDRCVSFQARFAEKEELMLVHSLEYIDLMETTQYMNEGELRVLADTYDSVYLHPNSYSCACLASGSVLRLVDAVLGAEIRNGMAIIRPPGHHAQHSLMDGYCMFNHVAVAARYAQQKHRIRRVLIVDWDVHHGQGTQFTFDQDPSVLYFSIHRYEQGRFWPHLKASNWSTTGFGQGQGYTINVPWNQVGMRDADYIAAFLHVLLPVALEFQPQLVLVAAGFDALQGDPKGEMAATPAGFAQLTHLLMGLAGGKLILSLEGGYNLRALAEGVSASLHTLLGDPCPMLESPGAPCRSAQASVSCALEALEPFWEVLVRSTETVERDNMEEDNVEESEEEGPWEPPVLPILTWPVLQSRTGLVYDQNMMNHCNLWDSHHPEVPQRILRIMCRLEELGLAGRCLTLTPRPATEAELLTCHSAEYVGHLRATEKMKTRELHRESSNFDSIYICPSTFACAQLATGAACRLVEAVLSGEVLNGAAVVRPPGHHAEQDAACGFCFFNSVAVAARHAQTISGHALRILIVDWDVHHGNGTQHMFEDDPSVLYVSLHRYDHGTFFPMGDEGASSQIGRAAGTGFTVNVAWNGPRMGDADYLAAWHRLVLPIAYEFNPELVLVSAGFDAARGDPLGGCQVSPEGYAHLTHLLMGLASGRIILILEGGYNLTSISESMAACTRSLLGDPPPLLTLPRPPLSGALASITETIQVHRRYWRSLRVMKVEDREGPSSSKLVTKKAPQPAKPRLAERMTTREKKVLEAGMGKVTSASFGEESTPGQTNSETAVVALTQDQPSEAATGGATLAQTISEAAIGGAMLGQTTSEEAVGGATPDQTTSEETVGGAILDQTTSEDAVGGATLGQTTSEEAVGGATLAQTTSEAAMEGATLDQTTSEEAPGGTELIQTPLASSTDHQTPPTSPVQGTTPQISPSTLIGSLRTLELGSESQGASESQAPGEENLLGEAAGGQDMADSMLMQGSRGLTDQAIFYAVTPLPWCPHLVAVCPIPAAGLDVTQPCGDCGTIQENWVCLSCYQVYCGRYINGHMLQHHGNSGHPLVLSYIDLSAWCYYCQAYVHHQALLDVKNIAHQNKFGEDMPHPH
In short: (§1)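 Recombinant human HDAC1 or HDAC6 (0.3 μg) reacted with 10 μM Fluor de Lys-SIRT1 substrate at 30 °C for 60 min. Developer added for 30 min, then fluorescence read at Ex 360/Em 460.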

human recombinant HDAC1 = molecular target: T2, human recombinant HDAC1 (Homo sapiens, UniProt Q13547); assay: HDAC enzyme activity inhibition assay (HDAC Fluorimetric Drug Discovery Kit), HDAC1; assay type: biochemical; settings: human recombinant HDAC1, Fluor de Lys-SIRT1 substrate, 30° C. 60 minutes
T2 construct: purchased Enzo Life Sciences, Inc. BML-SE456
T2 sequence (Q13547 whole entry): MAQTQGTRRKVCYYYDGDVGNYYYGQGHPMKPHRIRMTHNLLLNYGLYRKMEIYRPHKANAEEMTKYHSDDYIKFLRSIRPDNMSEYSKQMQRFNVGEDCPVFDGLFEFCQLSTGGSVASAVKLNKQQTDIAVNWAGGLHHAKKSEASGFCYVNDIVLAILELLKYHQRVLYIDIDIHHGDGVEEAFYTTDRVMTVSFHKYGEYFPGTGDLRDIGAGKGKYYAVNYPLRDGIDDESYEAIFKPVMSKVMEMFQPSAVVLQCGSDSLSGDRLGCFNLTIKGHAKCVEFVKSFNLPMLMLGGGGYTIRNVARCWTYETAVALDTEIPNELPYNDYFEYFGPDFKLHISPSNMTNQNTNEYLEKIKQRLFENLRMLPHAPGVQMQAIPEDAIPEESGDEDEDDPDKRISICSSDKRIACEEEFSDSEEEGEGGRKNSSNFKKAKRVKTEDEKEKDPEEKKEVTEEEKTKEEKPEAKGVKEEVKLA
In short: as §1

| SMILES | HDAC6 selectivity (fold) (human recombinant HDAC6) | IC50 (human recombinant HDAC6) [nM] | IC50 (human recombinant HDAC1) [nM] |
| --- | --- | --- | --- |
| O=C(C1CCCC1)N1CC(F)(C(=O)N(Cc2ccc(-c3nnc(C(F)F)o3)cn2)c2cccc(F)c2)C1 [Compound 3169, 1-(cyclopentanecarbonyl)-N-((5-(5-(difluoromethyl)-1,3,4-oxadiazol-2-yl)pyridin-2-yl)methyl)-3-fluoro-N-(3-fluorophenyl)azetidine-3-carboxamide] | 2,808 fold | 17.8 | > 50000 |
| O=C(C1CCCCC1)N1CC(F)(C(=O)N(Cc2ccc(-c3nnc(C(F)F)o3)cn2)c2cccc(F)c2)C1 [Compound 3170, 1-(cyclohexanecarbonyl)-N-((5-(5-(difluoromethyl)-1,3,4-oxadiazol-2-yl)pyridin-2-yl)methyl)-3-fluoro-N-(3-fluorophenyl)azetidine-3-carboxamide] | 2,066 fold | 24.2 | > 50000 |
| O=C(N(Cc1ccc(-c2nnc(C(F)F)o2)cn1)c1cccc(F)c1)C1(F)CN(CC2CCCCC2)C1 [Compound 3171, 1-(cyclohexylmethyl)-N-((5-(5-(difluoromethyl)-1,3,4-oxadiazol-2-yl)pyridin-2-yl)methyl)-3-fluoro-N-(3-fluorophenyl)azetidine-3-carboxamide] | 741 fold | 67.4 | > 50000 |
| O=C(N(Cc1ccc(-c2nnc(C(F)F)o2)cn1)c1cccc(F)c1)C1(F)CN(C2CCSCC2)C1 [Compound 3172, N-((5-(5-(difluoromethyl)-1,3,4-oxadiazol-2-yl)pyridin-2-yl)methyl)-3-fluoro-N-(3-fluorophenyl)-1-(tetrahydro-2H-thiopyran-4-yl)azetidine-3-carboxamide] | 2,192 fold | 22.8 | > 50000 |
| O=C(N(Cc1ccc(-c2nnc(C(F)F)o2)cn1)c1ccccc1)C1(F)CN(CC2CCOCC2)C1 [Compound 3216] | 875 fold | 57.1 | > 50000 |
| O=C(C1CC1)N1CC(F)(C(=O)N(Cc2ccc(-c3nnc(C(F)F)o3)cn2)c2cccc(F)c2)C1 [Compound 3217, 1-(cyclopropanecarbonyl)-N-((5-(5-(difluoromethyl)-1,3,4-oxadiazol-2-yl)pyridin-2-yl)methyl)-3-fluoro-N-(3-fluorophenyl)azetidine-3-carboxamide] | 1,440 fold | 34.7 | > 50000 |
| O=C(N(Cc1ccc(-c2nnc(C(F)F)o2)cn1)c1cccc(F)c1)C1(F)CN(CC2CCOCC2)C1 [Compound 3218] | 1,187 fold | 42.1 | > 50000 |
| CN1CC(N2CC(F)(C(=O)N(Cc3ccc(-c4nnc(C(F)F)o4)cn3)c3cccc(F)c3)C2)C1 [Compound 3219, N-((5-(5-(difluoromethyl)-1,3,4-oxadiazol-2-yl)pyridin-2-yl)methyl)-3-fluoro-N-(3-fluorophenyl)-1′-methyl-[1,3′-biazetidine]-3-carboxamide] | 988 fold | 50.6 | > 50000 |
| CCN1CC(N2CC(F)(C(=O)N(Cc3ccc(-c4nnc(C(F)F)o4)cn3)c3cccc(F)c3)C2)C1 [Compound 3220, N-((5-(5-(difluoromethyl)-1,3,4-oxadiazol-2-yl)pyridin-2-yl)methyl)-1′-ethyl-3-fluoro-N-(3-fluorophenyl)-[1,3′-biazetidine]-3-carboxamide] | 1,272 fold | 39.3 | > 50000 |
| CCCCN1CC(N2CC(F)(C(=O)N(Cc3ccc(-c4nnc(C(F)F)o4)cn3)c3cccc(F)c3)C2)C1 [Compound 3222, 1′-butyl-N-((5-(5-(difluoromethyl)-1,3,4-oxadiazol-2-yl)pyridin-2-yl)methyl)-3-fluoro-N-(3-fluorophenyl)-[1,3′-biazetidine]-3-carboxamide] | 1,420 fold | 35.2 | > 50000 |
| CC(C)CN1CC(N2CC(F)(C(=O)N(Cc3ccc(-c4nnc(C(F)F)o4)cn3)c3cccc(F)c3)C2)C1 [Compound 3223, N-((5-(5-(difluoromethyl)-1,3,4-oxadiazol-2-yl)pyridin-2-yl)methyl)-3-fluoro-N-(3-fluorophenyl)-1′-isobutyl-[1,3′-biazetidine]-3-carboxamide] | 1,424 fold | 35.1 | > 50000 |
| CC(C)N1CC(N2CC(F)(C(=O)N(Cc3ccc(-c4nnc(C(F)F)o4)cn3)c3cccc(F)c3)C2)C1 [Compound 3224] | 1,326 fold | 37.7 | > 50000 |
| CN1CC(N2CCC(F)(C(=O)N(Cc3ccc(-c4nnc(C(F)F)o4)cn3)c3cccc(F)c3)CC2)C1 [Compound 3389, N-((5-(5-(difluoromethyl)-1,3,4-oxadiazol-2-yl)pyridin-2-yl)methyl)-4-fluoro-N-(3-fluorophenyl)-1-(1-methylazetidine-3-yl)piperidine-4-carboxamide] | 885 fold | 32.2 | 28500 |
| CCCN1CC(N2CCC(F)(C(=O)N(Cc3ccc(-c4nnc(C(F)F)o4)cn3)c3cccc(F)c3)CC2)C1 [Compound 3390, N-((5-(5-(difluoromethyl)-1,3,4-oxadiazol-2-yl)pyridin-2-yl)methyl)-4-fluoro-N-(3-fluorophenyl)-1-(1-propylazetidine-3-yl)piperidin-4-carboxamide] | 1,015 fold | 23.8 | 24200 |
| CCCCN1CC(N2CCC(F)(C(=O)N(Cc3ccc(-c4nnc(C(F)F)o4)cn3)c3cccc(F)c3)CC2)C1 [Compound 3391, 1-(1-butylazetidine-3-yl)-N-((5-(5-(difluoromethyl)-1,3,4-oxadiazol-2-yl)pyridin-2-yl)methyl)-4-fluoro-N-(3-fluorophenyl)piperidine-4-carboxamide] | 1,361 fold | 20.9 | 28500 |
| CC(C)CN1CC(N2CCC(F)(C(=O)N(Cc3ccc(-c4nnc(C(F)F)o4)cn3)c3cccc(F)c3)CC2)C1 [Compound 3392, N-((5-(5-(difluoromethyl)-1,3,4-oxadiazol-2-yl)pyridin-2-yl)methyl)-4-fluoro-N-(3-fluorophenyl)-1-(1-isobutylazetidine-3-yl)piperidine-4-carboxamide] | 2,348 fold | 19 | 44600 |
| CC(C)N1CC(N2CCC(F)(C(=O)N(Cc3ccc(-c4nnc(C(F)F)o4)cn3)c3cccc(F)c3)CC2)C1 [Compound 3393, N-((5-(5-(difluoromethyl)-1,3,4-oxadiazol-2-yl)pyridin-2-yl)methyl)-4-fluoro-N-(3-fluorophenyl)-1-(1-isopropylazetidine-3-yl)piperidin-4-carboxamide] | 2,717 fold | 18.4 | > 50000 |
| O=C(N(Cc1ccc(-c2nnc(C(F)F)o2)cn1)c1cccc(F)c1)C1(F)CN(C2CN(C3CCC3)C2)C1 [Compound 3394, 1′-cyclobutyl-N-((5-(5-(difluoromethyl)-1,3,4-oxadiazol-2-yl)pyridin-2-yl)methyl)-3-fluoro-N-(3-fluorophenyl)-[1,3′-biazetidine]-3-carboxamide] | 1,886 fold | 26.5 | > 50000 |
| O=C(N(Cc1ccc(-c2nnc(C(F)F)o2)cn1)c1cccc(F)c1)C1(F)CN(C2CN(C3COC3)C2)C1 [Compound 3395, N-((5-(5-(difluoromethyl)-1,3,4-oxadiazol-2-yl)pyridin-2-yl)methyl)-3-fluoro-N-(3-fluorophenyl)-1′-(oxetan-3-yl)-[1,3′-biazetidine]-3-carboxamide] | 1,388 fold | 36 | > 50000 |
| O=C(N(Cc1ccc(-c2nnc(C(F)F)o2)cn1)c1cccc(F)c1)C1(F)CN(C2CN(C3CCCC3)C2)C1 [Compound 3396, 1′-cyclopentyl-N-((5-(5-(difluoromethyl)-1,3,4-oxadiazol-2-yl)pyridin-2-yl)methyl)-3-fluoro-N-(3-fluorophenyl)-[1,3′-biazetidine]-3-carboxamide] | 1,618 fold | 19.5 | 31600 |
